US5272175A, “Substituted tyrosyl diamide compounds” (priority 1992, dated 1993)
Structures can show the parent of a compound that is named as a salt.

Experiments:
mice [1] = assay: Hot Plate Assay (Hind Paw Lick Assay); type: in vivo, Male Charles River albino mice; settings: Mus musculus, sc, subcutaneous, 55 degrees Celsius, dose producing half maximum possible increase in latency (to 25 seconds)
Description: (§1) The "Tail Flick Assay" and the "Hot Plate Assay" (also known as the "Hind Paw Lick Assay") use thermal pain of transient duration, and are tests in which the pain threshold of the mice or rats being analyzed has not been altered. They are useful for evaluating the ability of a compound or drug to increase the animal's pain threshold (i.e. prolong response latencies), rather than to restore normal thresholds.
(§2) The heat-induced response to the Tail Flick Assay is a reflex reaction mediated at the level of the spinal cord. The heat-induced response to the Hot Plate Assay, however, is a more complex behavior requiring integration at higher centers in the brain. […]
(§3) Tail flick response latencies (defined as the time that elapsed between the onset of a high intensity beam of light and the reflex removal of the mouse's tail) and hot plate response latencies (defined as the time that elapsed between the placement of a mouse on a 55 degrees Celsius surface and a lick of the hind paw) were separately, but consecutively, measured before (baseline) and again at fixed intervals after subcutaneous administration of the Test Tyrosyl Diamide Compound, or after the administration of saline (controls). […] The significance of any increase in tail flick response latency or hot plate response latency is determined using analyses of variance. […]

μ opioid receptors = μ opioid receptors (Rattus norvegicus, UniProt P33535); assay: Opiate Binding Assay, displacement of 3[H]-DAMPGO from μ receptors
mice [2] = assay: Writhing Assay (phenylbenzoquinone (PBQ)-induced writhing), analgesic activity; type: in vivo, CD Charles River mice; settings: for ED50: Mus musculus, 50% of mice with writhes <= half control median
Description: The "Writhing Assay" is one of the most widely-used experimental procedures for measuring the analgesic activity of different narcotic and nonnarcotic analgesic agents, and involves the continuous, chemically-induced pain of visceral origin to an animal, such as a mouse or rat. [Gyires et al., Arch. int. Pharmacodyn, 267, 131-140 (1984); C. Vander Wende et al., Fed. Proc., 15, 494 (1956); Koster et al., Fed. Proc., 18, 412 (1959); and Witken et al., J. Pharmacol. Exp. Ther., 133, 400-408 (1961).] Chemicals which may be used to induce this pain include phenylbenzoquinone (PBQ) and acetic acid. As a result of the chemical irritation to the animal, a characteristic stretching and writhing of the animal (dorsiflexion of the animal's back, extension of its hindlimbs and the strong contraction of its abdominal musculature) will generally occur. […] Drugs which reduce the number of writhes of the animal appear to restore the normal nociceptive threshold of the animal.
This assay was conducted generally in the manner described by R. I. Taber, "Predictive Value of Analgesic Assays in Mice and Rats," Advances in Biochemical Phychopharmacology, 8, 191 (1974).
Two hundred CD Charles River mice, weighing 20 to 30 grams, were used in this assay.
Twenty-five minutes after subcutaneous administration, and fifteen minutes after oral administration, to the mice of 10 mg per kilogram (mpk) of body weight of either a tyrosyl diamide compound of the invention (hereinafter "test compound"), or of the Jacobson Compound, 0.1 mL per 10 g of body weight of a 0.025% w/v solution of phenylbenzoquinone (PBQ) was injected intraperitoneally into each mouse. Some mice were given saline in place of a test compound, or of the Jacobson Compound, and were used as a control group.
Five minutes later, each mouse was individually placed into a glass beaker for observation, and the number of writhes occurring during the following ten-minute period was counted.
A compound was considered to be "active" (to have produced analgesia in a mouse) if, after the administration of 10 mg per kilogram (mpk) of body weight of the compound to the mouse, the number of writhes elicited by a mouse injected with PBQ was equal to, or less than, one-half the median number of writhes recorded for the saline-treated control group of mice that day, as described by R. I. Taber, supra.
The standard initial screening dose of a test compound employed in this assay was 10 mpk […] for both routes of administration. If this initial screening dose of the compound produced analgesia in seven of ten mice, then the effect of additional doses of the compound on the writhing response was evaluated, and then the ED50 value (that dose of a compound which produced analgesia in 50% of the mice to which the compound was administered) was calculated. A maximum likelihood function was used to determine the ED50 value. (The slopes of the dose-response curves for the compounds analyzed were compared as described by Tallarida and Murray, Manual of Pharmacologic Calculations, Page 1 (Springer Verlag, N.Y., 1981)).

δ opioid receptors = δ opioid receptors (Rattus norvegicus, UniProt P33533); assay: Opiate Binding Assay, displacement of 3[H]-DSLET from δ receptors
mice [3] = assay: Tail Flick Assay; type: in vivo, Male Charles River albino mice; settings: Mus musculus, sc, subcutaneous, dose producing half maximum possible increase in latency (to 7.5 seconds)
Description: as §1, §2, §3

opioid activity = settings: cited from earlier work
[4] = system: brain opioid receptor sites; settings: cited from earlier work

Chain of δ opioid receptors (P33533 whole entry): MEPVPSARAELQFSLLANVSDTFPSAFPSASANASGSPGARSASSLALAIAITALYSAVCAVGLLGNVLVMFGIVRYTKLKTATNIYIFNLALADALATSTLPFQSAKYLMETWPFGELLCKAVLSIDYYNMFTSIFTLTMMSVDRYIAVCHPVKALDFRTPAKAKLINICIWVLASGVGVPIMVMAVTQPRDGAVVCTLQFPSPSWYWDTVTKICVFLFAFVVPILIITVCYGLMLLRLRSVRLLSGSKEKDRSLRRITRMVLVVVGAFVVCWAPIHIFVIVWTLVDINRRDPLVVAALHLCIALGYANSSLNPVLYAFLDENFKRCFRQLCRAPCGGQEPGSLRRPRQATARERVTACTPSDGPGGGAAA
Chain of μ opioid receptors (P33535 whole entry): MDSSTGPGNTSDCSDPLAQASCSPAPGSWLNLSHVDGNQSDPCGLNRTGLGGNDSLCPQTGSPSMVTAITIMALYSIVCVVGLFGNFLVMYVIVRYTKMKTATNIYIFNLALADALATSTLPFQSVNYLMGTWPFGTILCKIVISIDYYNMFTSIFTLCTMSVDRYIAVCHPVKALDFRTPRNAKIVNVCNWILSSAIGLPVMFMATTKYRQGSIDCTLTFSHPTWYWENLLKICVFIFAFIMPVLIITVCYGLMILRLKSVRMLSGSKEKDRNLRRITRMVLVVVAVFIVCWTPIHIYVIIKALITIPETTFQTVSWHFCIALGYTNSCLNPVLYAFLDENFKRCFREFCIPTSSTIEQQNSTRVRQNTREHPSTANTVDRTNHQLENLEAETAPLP

SMILES	ED50 (mice [1])	IC50 (μ opioid receptors)	potency rank in the Writhing Assay (mice [2])	ED50 (mice [2]; 0.25 h, oral, PBQ i.p. 15 min after compound, read-out: ED50, Writhing Assay, Oral (p.o.))	ED50 (mice [2]; sc, 25 min, subcutaneous, PBQ i.p. 25 min after compound, read-out: ED50, Writhing Assay, Subcutaneous (S.C.))	potency relative to the Jacobson Compound, Writhing Assay, oral (mice [2]; oral)	potency relative to the Jacobson Compound, Writhing Assay, subcutaneous (mice [2]; subcutaneous)	IC50 (δ opioid receptors)	Mean IC50 μ/δ Ratio (δ opioid receptors; ratio of mean IC50 values for μ and δ, above 1.0 = more δ specific)	ED50 (mice [3])	opioid / morphine-like activity (opioid activity)	binding to opiate / brain opioid receptor sites [4]
CC(=O)N[C@@H](Cc1ccccc1)C(=O)NCC(C)(C)NC(=O)[C@@H](N)Cc1c(C)cc(O)cc1C [Example 47, αS-(Acetylamino)-N-[2-[[[2S-amino-3-(4-hydroxy-2,6-dimethylphenyl) -1-oxopropyl]amino]-2-methylpropyl]-benzenepropanamide, monohydrochloride]	2.4 mg/kg	0.4 nM	most potent compound of the invention tested	0.6 mg/kg	0.2 mg/kg	seven times more potent	eight times more potent	0.3 nM	1.3	1.9 mg/kg		
CC(C)C[C@H](NC(=O)[C@H](Cc1ccccc1)NC(=O)CNC(=O)CNC(=O)[C@@H](N)Cc1ccc(O)cc1)C(=O)O [leucine enkephalin, H2 N-Tyr-Gly-Gly-Phe-Leu-OH]											some weak morphine-like actions	bind to the same receptor sites as do the opiates
CSCC[C@H](NC(=O)[C@H](Cc1ccccc1)NC(=O)CNC(=O)CNC(=O)[C@@H](N)Cc1ccc(O)cc1)C(=O)O [methionine enkephalin, H2 N-Tyr-Gly-Gly-Phe-Met-OH]											some weak morphine-like actions	bind to the same receptor sites as do the opiates
